Where two headings read alike, the source gives them in different places.

Results on 7 molecules are retold here after patent EP1222265B1, “NOVEL NICOTINIC ACETYLCHOLINE RECEPTOR SUBUNIT, ITS ISOLATION AND USE” (Sanofi-Aventis, priority 1999, dated 2001).

One test addresses T1, homomeric α9 receptors (Homo sapiens, UniProt Q9UGM1).
T1 construct: expressed in transfected cells; host or cells: Xenopus laevis oocytes (cDNA injection)
The format is cell-based.

Test [1] has as its target T2, Heteromeric α9-HNARA10 receptors (Homo sapiens, UniProt Q9GZZ6+Q9UGM1).
T2 construct: expressed in transfected cells; host or cells: Xenopus laevis oocytes (nuclear injection of cDNA)
The test is described as follows: ACh-evoked currents in Xenopus laevis oocytes injected with human α9 and HNARA10 cDNAs. The format is cell-based. The note with it: for antagonism of ACh responses: α9+HNARA10 receptors.

The target of test [2] is human nicotinic acetylcholine receptor α9 subunit (homomeric α9 receptors) (human) (UniProt Q9UGM1). Briefly: cell-based or functional assay.
human nicotinic acetylcholine receptor α9 subunit (homomeric α9 receptors) (human), sequence (Q9UGM1 23-479): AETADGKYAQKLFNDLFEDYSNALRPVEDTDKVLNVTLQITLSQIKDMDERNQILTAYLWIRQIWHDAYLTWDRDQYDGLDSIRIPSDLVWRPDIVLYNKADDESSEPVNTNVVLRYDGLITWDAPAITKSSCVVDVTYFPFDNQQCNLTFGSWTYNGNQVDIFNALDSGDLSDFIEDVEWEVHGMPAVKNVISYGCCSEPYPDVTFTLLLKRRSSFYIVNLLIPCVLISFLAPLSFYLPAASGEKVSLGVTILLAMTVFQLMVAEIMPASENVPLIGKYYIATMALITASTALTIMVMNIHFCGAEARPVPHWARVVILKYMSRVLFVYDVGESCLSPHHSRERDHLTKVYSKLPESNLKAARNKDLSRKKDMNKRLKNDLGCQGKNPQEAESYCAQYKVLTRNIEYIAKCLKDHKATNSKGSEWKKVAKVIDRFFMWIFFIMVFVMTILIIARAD

T1 sequence (Q9UGM1 23-479): as above
T2 sequence (Q9UGM1 23-479): as above
T2 sequence (Q9GZZ6 25-450): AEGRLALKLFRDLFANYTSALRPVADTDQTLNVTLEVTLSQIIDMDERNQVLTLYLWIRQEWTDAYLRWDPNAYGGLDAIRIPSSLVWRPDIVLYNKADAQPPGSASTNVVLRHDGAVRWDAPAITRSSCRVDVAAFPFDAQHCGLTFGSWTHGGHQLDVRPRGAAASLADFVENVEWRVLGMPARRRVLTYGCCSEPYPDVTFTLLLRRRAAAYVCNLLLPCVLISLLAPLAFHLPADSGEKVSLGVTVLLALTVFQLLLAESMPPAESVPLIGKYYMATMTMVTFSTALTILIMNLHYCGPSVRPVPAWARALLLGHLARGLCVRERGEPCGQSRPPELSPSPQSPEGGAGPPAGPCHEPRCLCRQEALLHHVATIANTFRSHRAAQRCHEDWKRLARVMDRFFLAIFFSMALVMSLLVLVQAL

With `COc1cc2c3cc1Oc1cc(ccc1O)C[C@@H]1c4c(cc(OC)c(O)c4Oc4ccc(cc4)C[C@@H]3N(C)CC2)CC[N+]1(C)C` [d-tubocurarine], the “antagonism of ACh responses” value (on homomeric α9 receptors (α9 receptors); in test [1]) was “fully antagonized” throughout.
On to `CN1CCCC1c1cccnc1` (centres unmarked) [nicotine], for which the agonist response entry (at homomeric α9 receptors; in test [1]) was “did not elicit any response” throughout.
Turning to `C[N+](C)(C)CCOC(N)=O` [carbachol], the “evoked current (partial agonist)” value in test [1] (oocytes expressing the mixture α9-HNARA10, from dose-response curves) was “about 72%”.
Regarding `Clc1ccc(C2CC3CCC2N3)cn1` (centres unmarked) [epibatidine], the agonist response result (on homomeric α9 receptors (α9 expressing oocytes); in test [1] (α9+HNARA10 expressing oocytes)) was “did not elicit any response” each time.
On to “HNARA10 polypeptide (human nicotinic acetylcholine receptor alpha 10 subunit)”, for which, in test [2], the amplitude of acetylcholine-evoked currents in Xenopus oocytes, α9-HNARA10 mixture against α9 alone came out at 100 fold.
With `C[N+]1(C)CCN(c2ccccc2)CC1` [DMPP], the agonist response entry (at homomeric α9 receptors; in test [1]) was “did not elicit any response” in each case.
Turning to `CO[C@H]1CC=C2CCN3CCC4=C(CC(=O)OC4)[C@]23C1` [dihydro-β-erythroidine], the “antagonism of ACh responses” value in test [1] is given as “did not have any effect”.
